The target in the experiment is human μ-opiate receptor (Homo sapiens, UniProt P35372). Nature of the experiment: Affinity for the human μ-opiate receptor ([3H]-naloxone displacement, SPA, CHO-K1 membrane preparation). Type of experiment: binding. As to conditions: for inhibition at 1 µM: read-out: μ-Opioid receptor, % inhibition [1 μM]; for Ki: read-out: μ-Opioid receptor, Ki.

Read-outs that look alike come from different tables or passages of the source.

Chain of human μ-opiate receptor (P35372 whole entry): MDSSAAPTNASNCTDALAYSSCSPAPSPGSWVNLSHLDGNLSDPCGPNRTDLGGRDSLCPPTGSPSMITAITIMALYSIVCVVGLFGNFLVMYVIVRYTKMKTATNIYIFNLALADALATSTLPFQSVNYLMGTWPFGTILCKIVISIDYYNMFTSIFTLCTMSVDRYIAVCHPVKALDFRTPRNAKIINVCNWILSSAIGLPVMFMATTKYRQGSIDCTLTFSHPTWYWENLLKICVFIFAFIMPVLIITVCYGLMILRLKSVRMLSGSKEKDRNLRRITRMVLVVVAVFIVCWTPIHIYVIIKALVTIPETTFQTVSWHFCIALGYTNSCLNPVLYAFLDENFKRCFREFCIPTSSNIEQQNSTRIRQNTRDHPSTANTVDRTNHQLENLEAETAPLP

Consider `COc1ccc(C(=O)NC2CCC(C(c3ccccc3)N(C)C)CC2)c(OC)c1` (stereo not shown) [compound 216, N-[4-(dimethylamino-phenyl-methyl)-cyclohexyl]-2,4-dimethoxy-benzamide], for which the inhibition (in general, the percentage by which the read-out fell short of the control) at 1 µM came out at 90% and the inhibition constant (Ki) (usually a measure of affinity in units of concentration, obtained from inhibition or displacement) was 56 nM.
Taken in the same sequence, the figures for `CN(C)C(c1ccccc1)C1CCC(NC(=O)c2ccc(C(C)(C)C)cc2)CC1` (stereo not shown) [compound 217, 4-tert-butyl-N-[4-(dimethylamino-phenyl-methyl)-cyclohexyl]-benzamide] were 90% and 62 nM.
As for `CN(C)C(c1cccs1)C1CCC(NC(=O)c2cccnc2Sc2ccc(Cl)cc2)CC1` (stereo not shown) [compound 218, 2-(4-chloro-phenylsulfanyl)-N-[4-(dimethylamino-thiophen-2-yl-methyl)-cyclohexyl]-nicotinamide], the inhibition at 1 µM came to 89%.
Turning to `CN(C)C(c1cccs1)C1CCC(NC(=O)Cc2ccc(Cl)cc2)CC1` (stereo not shown) [compound 219, 2-(4-chloro-phenyl)-N-[4-(dimethylamino-thiophen-2-yl-methyl)-cyclohexyl]-acetamide], the inhibition at 1 µM was 89% and the Ki was 56 nM.
Consider `Cc1ccc(Oc2ncccc2C(=O)NC2CCC(C(c3cccs3)N(C)C)CC2)cc1` (stereo not shown) [compound 220, N-[4-(dimethylamino-thiophen-2-yl-methyl)-cyclohexyl]-2-p-tolyloxy-nicotinamide], for which the inhibition at 1 µM worked out at 88% and the Ki turned out to be 150 nM.
Take `CC(C)S(=O)(=O)c1csc(C(=O)NC2CCC(C(c3cccs3)N(C)C)CC2)c1Cl` (stereo not shown) [compound 221, 3-chloro-4-(propan-2-sulfonyl)-thiophene-2-carboxylic acid [4-(dimethylamino-thiophen-2-yl-methyl)-cyclohexyl]-amide]: the inhibition at 1 µM was 88% and the Ki is 29 nM.
For the molecule `Cc1cc(C(=O)NC2CCC(C(c3ccccc3)N(C)C)CC2)n(C(C)(C)C)n1` (stereo not shown) [compound 223, 2-tert-butyl-5-methyl-2H-pyrazole-3-carboxylic acid [4-(dimethylamino-phenyl-methyl)-cyclohexyl]-amide], the inhibition at 1 µM is 88% and the Ki turned out to be 20 nM.
As to `Cc1cc(C(=O)NC2CCC(C(c3cccs3)N(C)C)CC2)no1` (stereo not shown) [compound 224, 5-Methyl-isoxazole-3-carboxylic acid [4-(dimethylamino-thiophen-2-yl-methyl)-cyclohexyl]-amide], the inhibition at 1 µM turned out to be 87%.
In the case of `CN(C)C(c1cccs1)C1CCC(NC(=O)c2cncc(Br)c2)CC1` (stereo not shown) [compound 225, 5-bromo-N-[4-(dimethylamino-thiophen-2-yl-methyl)-cyclohexyl]-nicotinamide], the inhibition at 1 µM was determined as 87% and the Ki was found to be 20 nM.
In the case of `CN(C)C(c1ccccc1)C1CCC(NC(=O)c2cccc3ccccc23)CC1` (stereo not shown) [compound 226, naphthyl-1-carboxylic acid [4-(dimethylamino-phenyl-methyl)-cyclohexyl]-amide], the “μ-Opioid receptor, % inhibition [1 μM]” value is 87% and the Ki came out at 58 nM.
With `Cc1oc(-c2ccc(Cl)cc2)cc1C(=O)NC1CCC(C(c2cccs2)N(C)C)CC1` (stereo not shown) [compound 229, 5-(4-chloro-phenyl)-2-methyl-furan-3-carboxylic acid [4-(dimethylamino-thiophen-2-yl-methyl)-cyclohexyl]-amide], the inhibition at 1 µM was determined as 86% and the Ki came out at 39 nM.
As for `CC(Oc1ccccc1)C(=O)NC1CCC(C(c2ccccc2)N(C)C)CC1` (stereo not shown) [compound 230, N-[4-(dimethylamino-phenyl-methyl)-cyclohexyl]-2-phenoxy-propionamide], the inhibition at 1 µM is 86% and the Ki was 21 nM.
For `CN(C)C(c1cccc(F)c1)C1CCC(NC(=O)c2cc3ccccc3s2)CC1` (stereo not shown) [compound 231, benzo[b]thiophene-2-carboxylic acid {4-[dimethylamino-(3-fluoro-phenyl)-methyl]-cyclohexyl}-amide], the inhibition at 1 µM came to 86% and the Ki came to 45 nM.
Taken in the same sequence, the figures for `Cc1oc(-c2ccc(Cl)cc2)cc1C(=O)NC1CCC(C(c2ccccc2)N(C)C)CC1` (stereo not shown) [compound 232, 5-(4-chloro-phenyl)-2-methyl-furan-3-carboxylic acid [4-(dimethylamino-phenyl-methyl)-cyclohexyl]-amide] were 84% and 74 nM.
Taken in the same sequence, the figures for `Cc1c(S(=O)(=O)c2ccc(Cl)cc2)csc1C(=O)NC1CCC(C(c2ccccc2)N(C)C)CC1` (stereo not shown) [compound 233, 4-(4-chloro-benzenesulfonyl)-3-methyl-thiophene-2-carboxylic acid [4-(dimethylamino-phenyl-methyl)-cyclohexyl]-amide] were 84% and 71 nM.
Taken in the same sequence, the figures for `CN(C)C(c1ccccc1)C1CCC(NC(=O)c2cncc(Br)c2)CC1` (stereo not shown) [compound 235, 5-bromo-N-[4-(dimethylamino-phenyl-methyl)-cyclohexyl]-nicotinamide] were 84% and 61 nM.
`CN(C)C(c1ccccc1)C1CCC(NC(=O)C23CC4CC(CC(C4)C2)C3)CC1` (stereo not shown) [compound 236, adamantane-1-carboxylic acid [4-(dimethylamino-phenyl-methyl)-cyclohexyl]-amide]: the inhibition at 1 µM came to 83% and the Ki came out at 63 nM.
On to `CN(C)C(c1ccccc1)C1CCC(NC(=O)c2csc(-c3ccccc3)n2)CC1` (stereo not shown) [compound 237, 2-phenyl-thiazole-4-carboxylic acid [4-(dimethylamino-phenyl-methyl)-cyclohexyl]-amide], for which the inhibition at 1 µM amounted to 83% and the Ki is 48 nM.
Taken in the same sequence, the figures for `Cc1nc(-c2ccccc2)sc1C(=O)NC1CCC(C(c2ccccc2)N(C)C)CC1` (stereo not shown) [compound 238, 4-methyl-2-phenyl-thiazole-5-carboxylic acid [4-(dimethylamino-phenyl-methyl)-cyclohexyl]-amide] were 83% and 38 nM.
Taken in the same sequence, the figures for `CN(C)C(c1cccs1)C1CCC(NC(=O)c2csc(-c3ccc4c(c3)CCO4)n2)CC1` (stereo not shown) [compound 239, 2-(2,3-dihydro-benzofuran-5-yl)-thiazole-4-carboxylic acid [4-(dimethylamino-thiophen-2-yl-methyl)-cyclohexyl]-amide] were 82% and 80 nM.
`CN(C)C(c1cccc(F)c1)C1CCC(NC(=O)Cc2ccccc2)CC1` (stereo not shown) [compound 240, N-{4-[dimethylamino-(3-fluoro-phenyl)-methyl]-cyclohexyl}-2-phenyl-acetamide]: the inhibition at 1 µM came out at 82% and the Ki was determined as 51 nM.
As for `CN(C)C(CCc1ccccc1)C1CCC(NC(=O)c2cccc(Cl)c2)CC1` (stereo not shown) [compound 241, 3-chloro-N-[4-(1-dimethylamino-3-phenyl-propyl)-cyclohexyl]-benzamide], the inhibition at 1 µM was found to be 82% and the Ki stood at 68 nM.
On to `Cc1ccc(C(=O)NC2CCC(C(c3ccccc3)N(C)C)CC2)cc1` (stereo not shown) [compound 242, N-[4-(dimethylamino-phenyl-methyl)-cyclohexyl]-4-methyl-benzamide], for which the inhibition at 1 µM is 82% and the Ki is 46 nM.
For `CN(C)C(c1cccc(F)c1)C1CCC(NC(=O)c2cc(Cl)cc(Cl)c2)CC1` (stereo not shown) [compound 243, 3,5-dichloro-N-{4-[dimethylamino-(3-fluoro-phenyl)-methyl]-cyclohexyl}-benzamide], the inhibition at 1 µM is 82% and the Ki is 25 nM.
Taken in the same sequence, the figures for `CN(C)C(c1ccccc1)C1CCC(NC(=O)c2c(F)ccc(F)c2F)CC1` (stereo not shown) [compound 244, N-[4-(dimethylamino-phenyl-methyl)-cyclohexyl]-2,3,6-trifluoro-benzamide] were 82% and 30 nM.
Regarding `Cc1cc(C(=O)NC2CCC(C(c3ccccc3)N(C)C)CC2)n(C(C)(C)C)n1` (stereo not shown) [compound 247, 2-tert-butyl-5-methyl-2H-pyrazole-3-carboxylic acid [4-(dimethylamino-phenyl-methyl)-cyclohexyl]-amide], the Ki was found to be 36 nM. Moreover, the “μ-Opioid receptor, % inhibition [1 μM]” value (1 µM) is on record as 82%.
Take `Cc1cccc(C(=O)NC2CCC(C(CCc3ccccc3)N(C)C)CC2)c1` (stereo not shown) [compound 248, N-[4-(1-dimethylamino-3-phenyl-propyl)-cyclohexyl]-3-methyl-benzamide]: the inhibition at 1 µM came to 81% and the Ki came to 88 nM.
With `CN(C)C(c1cccc(F)c1)C1CCC(NC(=O)CC(C)(C)C)CC1` (stereo not shown) [compound 251, N-{4-[dimethylamino-(3-fluoro-phenyl)-methyl]-cyclohexyl}-3,3-dimethyl-butyramide], the inhibition at 1 µM was 81% and the Ki was found to be 91 nM.
In the case of `CN(C)C(c1ccccc1)C1CCC(NC(=O)c2scc(S(C)(=O)=O)c2Cl)CC1` (stereo not shown) [compound 252, 3-chloro-4-methanesulfonyl-thiophene-2-carboxylic acid [4-(dimethylamino-phenyl-methyl)-cyclohexyl]-amide], the inhibition at 1 µM stood at 81% and the Ki turned out to be 20 nM.
For `Cc1c(S(=O)(=O)c2ccc(Cl)cc2)csc1C(=O)NC1CCC(C(c2ccccc2)N(C)C)CC1` (stereo not shown) [compound 253, 4-(4-chloro-benzenesulfonyl)-3-methyl-thiophene-2-carboxylic acid [4-(dimethylamino-phenyl-methyl)-cyclohexyl]-amide], the Ki was determined as 79 nM. The “μ-Opioid receptor, % inhibition [1 μM]” value (1 µM) worked out at 80%.
In the case of `CN(C)C(c1ccccc1)C1CCC(NC(=O)COCc2ccccc2)CC1` (stereo not shown) [compound 254, 2-benzyloxy-N-[4-(dimethylamino-phenyl-methyl)-cyclohexyl]-acetamide], the inhibition at 1 µM was 80% and the inhibition constant (Ki) came to 56 nM.
Taken in the same sequence, the figures for `CN(C)C(c1ccccc1)C1CCC(NC(=O)Cc2cccs2)CC1` (stereo not shown) [compound 255, N-[4-(dimethylamino-phenyl-methyl)-cyclohexyl]-2-thiophen-2-yl-acetamide] were 80% and 46 nM.
Take `Cc1nc(-c2ccccc2)sc1C(=O)NC1CCC(C(c2cccc(F)c2)N(C)C)CC1` (stereo not shown) [compound 256, 4-methyl-2-phenyl-thiazole-5-carboxylic acid {4-[dimethylamino-(3-fluoro-phenyl)-methyl]-cyclohexyl}-amide]: the inhibition at 1 µM was 80% and the Ki worked out at 80 nM.

For the origin of these results see patent US8058475B2, “Substituted cyclohexylmethyl compounds” (Gruenenthal GmbH, priority 2005, dated 2011).
